In patent US12569506B2, “Methods of treating osteonecrosis with LLP2A-bisphosphonate compounds” (The Regents of the University of California, priority 2016, dated 2026):
Entries after “also recorded” stand apart in the source; their conditions may differ.

Key:
VEGF = assay: Serum VEGF levels by ELISA in glucocorticoid-treated mice; format: in vivo; details: day 56; GC from day 1; LLP2A-Ale given at day 28; ELISA in duplicate (FIG. 4)
Procedure: FIG. 4. Serum VEGF-A levels in glucocorticoid-treated mice. Mice treated with placebo (PL), glucocorticoid (GC), glucocorticoid and 250 μg/kg LLP2A-Ale (GC+LLP2A-Ale), glucocorticoid and PTH (GC+PTH), or glucocorticoid and PTH and 250 μg/kg LLP2A-Ale (GC+PTH+LLP2A-Ale) were measured for serum levels of VEGF.
Increased blood vessel formation can also be assessed by marker analysis. For example, VEGF is a pro-angiogenic factor and stimulates new blood vessel formation. […] PTH was given 20 ug/kg 5× a week, while LLP2A-Ale was given at […] at day 28 only.

[1] = test system: glucocorticoid-treated mice; assay: Trabecular bone volume in glucocorticoid-treated mice; format: in vivo; details: GC 28 days then treatment
Procedure: FIG. 6. Trabecular bone volume in glucocorticoid-treated mice. Mice were treated for 28 days with glucocorticoid (GC), then treated with either LLP2A-Ale, PTH, or LLP2A-Ale+PTH. The outcome measure was the change in trabecular bone mass from day 28 to 56, measured in vivo at the distal femur (left panel) and change in trabecular bone mass for the vertebral trabecular bone volume (right panel).
Changes in trabecular bone mass during the treatment period for the distal femur and vertebral trabecular bone volume were measured.

[2] = test system: dexamethasone-treated mice; assay: Adipose and sinusoid volume of distal femoral epiphysis, 90 day model; format: in vivo, BALB/c mice
Procedure: FIG. 10A-10B. Adipose and sinusoid volume of femurs from treated mice. Mice were treated with placebo (PL), dexamethasone alone (Dex), Dex+250 μg/kg LLP2A-Ale, Dex+500 μg/kg LLP2A-Ale, or Dex+750 μg/kg LLP2A-Ale as described above for FIG. 7. (A) Mice were assessed for adipose volume within the distal femoral epiphysis region. […] (B) Mice were assessed for sinusoids in the bone marrow.
(§1) Both the right and left distal femurs were fixed in 10% neutral buffered formalin and were shaken for 3 days, then decalcified in 5% EDTA until the bones were fully decalcified. The specimens were then processed in ascending concentrations of ethanol and embedded in paraffin. Tissue sections were cut into 5 microns sections, stained with hematoxylin and eosin and evaluated for the presence of osteonecrosis by bright field microscopy at 20× magnification. Experimental methods are also described in Mohan et al., Calif Tissue Int (2016) doi:10.1007/s00223-016-0195-6, which is incorporated herein by reference in its entirety for all purposes. Osteonecrosis was detected using modified criteria reported by Yang el al., (a mouse model for glucocorticoid-induced osteonecrosis: Effect of a steroid holiday. J Orthop Res. 2009; 27:169-75) which defines osteonecrosis as requiring all of the following changes: (1) empty lacunae, (2) pyknotic osteocyte nuclei in areas of empty lacunae and necrosis of adjacent bone marrow, (3) presence of excessive fat cells in the bone marrow, (4) cartilage degradation and (5) presence of fibrin thrombi in the blood vessels. In addition, trabecular bone volume, adipose volume, sinusoid volume and osteoblast surface at the distal femoral epiphyses were measured. Empty lacunae density was calculated by empty lacunae/total osteocytes within the entire distal femoral epiphysis region for each sample. Each section was scored by two experienced histologists, then a consensus reading was performed by two additional experienced histologists.

[3] = test system: dexamethasone-treated mice; assay: Histological evaluation (H&E) of femoral epiphyses, 90 day model; format: in vivo, BALB/c mice
Procedure: FIG. 9A-9F. Histological evaluation of femurs from placebo- or dexamethasone-treated mice. Mice were treated with placebo (PL) or dexamethasone alone (Dex) as described above for FIG. 7. All mice were euthanized at day 90. Right and left distal femurs were fixed in 10% neutral buffer formalin and decalcified. The specimens were dehydrated, embedded in paraffin, cut into 5 micron sections and H&E stained. The sections were scored by two experienced histologists and then a consensus reading was performed by two additional histologists. FIG. 9A-9B: 4× (A) and 20× (B) magnifications of representative proximal femoral epiphyses in mice treated with placebo. (C) 4× magnification of a representative proximal femoral epiphyses in mice treated with dexamethasone (Dex) alone. FIGS. 9D, 9E, and 9F: 20× magnifications of representative proximal femoral epiphyses in mice treated with dexamethasone (Dex) alone.
FIG. 11A-11F. Histological evaluation of femurs from LLP2A-Ale-treated mice. Mice were treated with Dex+250 μg/kg LLP2A-Ale as described above for FIG. 7. All mice were euthanized at day 90. Right and left distal femurs were fixed in 10% neutral buffer formalin and decalcified. The specimens were dehydrated, embedded in paraffin, cut into 5 micron sections and H&E stained. The sections were scored by two experienced histologists and then a consensus reading was performed by two additional histologists. (A, D): 4× magnifications of representative proximal femoral epiphyses in mice treated with Dex+LLP2A-Ale. (B, C, E, F): 20× magnifications of representative proximal femoral epiphyses in mice treated with Dex+LLP2A-Ale.
as §1

[4] = test system: dexamethasone-treated mice; assay: 30 and 45 day prevention study: incidence of glucocorticoid-induced osteonecrosis; format: in vivo, BALB/c mice; details: 30 or 45 days; Dex + LLP2A-Ale 250 or 500 μg/kg, or Dex + 40 μg/kg hPTH five times a week (FIG. 12)
Procedure: FIG. 12. Reduction in incidence of glucocorticoid-induced osteonecrosis in mice treated with recombinant LLP2A-Ale. Mice were randomized into placebo (PL) (fresh water), dexamethasone (Dex) 4 mg/l in drinking water, Dex+250 μg/kg LLP2A-Ale, Dex+500 μg/kg LLP2A-Ale, or Dex+40 μg/kg hPTH (1-34) groups for a 30 day treatment period or a 45 day treatment period. The incidence of Dex-induced osteonecrosis was 57% on day 30 and 73% on day 45.
The efficacy of LLP2A-Ale and hPTH (1-34) was evaluated over a 30 and 45 day study using a mouse model of glucocorticoid-induced osteonecrosis. Seven week-old male BALB/c mice were randomized into Placebo group (fresh water), glucocorticoid only (4 mg/L dexamethasone (Dex) in drinking water), Dex+250 μg/kg LLP2A-Ale, Dex+500 μg/kg LLP2A-Ale, or Dex+40 μg/kg hPTH (administered five times a week) for 30 or 45 days. At day 30 or 45, the mice were sacrificed. Study endpoints included histological evidence of osteonecrosis, bone mass, and prevalent blood vessels (CD31 and Endomucin expression) in the distal femur, and was performed as set forth in Example 2. Non-parametric Kruskal-Wallis tests were used to determine the differences between the groups.

Compound: Cc1ccccc1NC(=O)Nc1ccc(CC(=O)N[C@@H](CCCCNC(=O)/C=C/c2cccnc2)C(=O)N[C@@H](CCCC(=O)O)C(=O)NC2(C(=O)NCCOCCOCCNC(=O)CCC(=O)NCCOCCOCCNC(=O)CCC(=O)N[C@@H](CCCCNC(=O)[C@H](N)CSC3CC(=O)N(CC4CCC(C(=O)NCCCC(O)(P(=O)(O)O)P(=O)(O)O)CC4)C3=O)C(N)=O)CCCCC2)cc1 (some centres unmarked) [LLP2A-Ale]
- Serum levels of VEGF (VEGF): returned the levels of serum VEGF to those of placebo treated animals
- Change in trabecular bone mass/volume at the distal femur ([1]; change from day 28 to 56, measured in vivo (FIG. 6 left)): increased the distal femur trabecular bone volume to the baseline/sham level
- Vertebral trabecular bone volume ([1]; day 28 to 56 (FIG. 6 right)): increased the bone volume relative to the glucocorticoid-treated mice
- Sinusoid volume on increasing the dose ([2]; LLP2A-Ale above 250 μg/kg vs 250 μg/kg): marginal decrease
- Adipose volume within the distal femoral epiphysis ([2]; all three dosages (250, 500, 750 μg/kg) vs Dex alone, day 90 (FIG. 10A)): reduced adipose volumes
- Sinusoid volume in the bone marrow ([2]; all three dosages vs placebo or Dex alone, day 90 (FIG. 10B)): increased sinusoid volumes
- Sinusoid formation (histological sections of epiphyses) ([3]; Dex+250 μg/kg LLP2A-Ale, day 90, H&E (FIG. 11)): increased sinusoid formation; also recorded: increase in sinusoid formation
- Amount of fibrin within the bone marrow ([3]; day 90): appeared to reduce the amount of fibrin
- Number of osteoblasts on the bone surface in areas of osteonecrosis ([3]; epiphyses, day 90): increased the number of osteoblasts
- Adipocyte density in the bone marrow ([3]; vs dexamethasone alone, day 90): appeared to reduce
- Cellularity of the bone marrow ([3]; vs dexamethasone alone, day 90): maintained the cellularity of the bone marrow
- Number of empty lacunae/pyknotic nuclei ([3]; vs dexamethasone alone, day 90): appeared to reduce
- Sinusoidal red blood cell volume ([3]; vs dexamethasone alone, day 90): increased the sinusoidal red blood cell volume
- Prevalence/incidence of glucocorticoid-induced osteonecrosis lesions (in words) [4]: prevented incident GC-induced osteonecrosis lesions; also recorded: reduced the incidence and severity of osteonecrosis; also recorded: prevented glucocorticoid-induced osteonecrotic lesions
